A short description of series [1]: Pharmacokinetics (PK) in Male Beagle Dogs. The series is classed as in vivo. To be noted: dog, plasma; for Vd: read-out: Vdss. How it is done: Assay 3. Pharmacokinetics (PK) in Male Beagle Dogs
The pharmacokinetic (PK) profile in plasma of two compounds of the present invention was determined in male beagle dogs following single dose IV (5 mg/kg) and PO (10 mg/kg) administration. This study was performed under non-GLP conditions, and unless otherwise stated, all analytical reagents were standard laboratory reagent grade.
Male beagle dogs were housed individually and maintained in a controlled environment. Pedigree® standard dog chow (Pedigree India Private Ltd, Telangana, India) was provided once daily. Drinking water was available ad libitum. Environmental controls for the animal room were set to maintain a temperature range of 22-25° C., relative humidity range of 40-70%, and a 12-hour light/12-hour dark cycle. Normal healthy animals weighing 10±1 kg, certified by the attending veterinarian, were selected and acclimatized for a minimum of three days prior to initiation of study. Dogs were identified by chip number inserted at the neck region. The study protocol was reviewed and approved by the Institutional Animal Ethics Committee (IAEC).
2-[4-[[4-[1-(2,6-dioxo-3-piperidyl)-3-methyl-2-oxo-benzimidazol-5-yl]-1-piperidyl]methyl]cyclohexyl]-7-isopropoxy-N-pyrazolo[1,5-a]pyrimidin-3-yl-imidazo[1,2-a]pyridine-6-carboxamide, as described in Example 48 (“Compound 48”), and 2-((1R,4S)-4-((4-(1-(2,6-dioxopiperidin-3-yl)-3-methyl-2-oxo-2,3-dihydro-1H-benzo[d]imidazol-5-yl)piperidin-1-yl)methyl)cyclohexyl)-N-(1-((1S,2R)-2-fluorocyclopropyl)-2-oxo-1,2-dihydropyridin-3-yl)-7-isopropoxyimidazo[1,2-a]pyridine-6-carboxamide, as described in Example 169 (“Compound 169”), were each formulated by dissolving the compound in polyethylene glycol (PEG400) (10%) with stirring, followed by the slow addition of 11.11% 2-Hydroxypropyl-beta-cyclodextrin (HPβCD) (90%) in water. Vehicle dose was PEG400 (10%) and 11.11% HP-β-CD (90%) in water. Formulations and vehicle were freshly prepared on the day of dosing and stored at room temperature until used.
All animals were weighed prior to drug administration. The animals were divided into intravenous (IV) group and per os (PO) group for each compound tested, with 3 animals in each group. The vehicle dosing group also included IV and PO groups, making a total of 6 groups of 3 animals each, for 18 animals total. The animals were restrained physically in sternal recumbently, on an examination table. The IV dose was administered by intravenous bolus injection into the cephalic vein and the PO dose was administered via gastric tube. The dosing volume was 1 mL/kg for IV groups and 2 mL/kg for PO groups. The dosing concentration was 5 mg/mL for both IV and PO groups respectively. The animals were fasted overnight and food was provided 4 hours post dose. […] Apart from this, animals were observed twice daily for any clinical signs, if any, and noted accordingly.
From the vehicle treatment group, whole blood was collected for peripheral blood mononuclear cells (PBMC) isolation at Pre-dose, and at 2, 8, 24, 48, 72 and 96 hour timepoints. For both tested compounds IV and PO dosing groups, whole blood was collected for plasma isolation at Pre-dose, and 0.033, 0.083, 0.167, 0.33, 1, 2, 4, 6, 8, 24, 48, 72 and 96 hour timepoints. The anti-coagulant solution used was 6% (v/v) Sodium citrate (200 mM, pH 4.79) (pre-chilled tubes). The whole blood from both IV and PO compound treatment dosing groups collected at Pre-dose, 2, 8, 24, 48, 72 and 96 hours were subjected to PBMC isolation.
For sample preparation, approximately 1-2 mL of whole blood was drawn from the peripheral vein and collected in labeled tubes containing lithium heparin, then stored on ice. The blood samples were centrifuged within 15 minutes to separate plasma at 1540 g at 4° C. for 10 minutes. The plasma was separated and transferred to pre-labeled microcentrifuge tubes and immediately frozen at −80±10° C. until bioanalysis. […]

For the next series, the target named is T1, IKZF1 (Homo sapiens, UniProt Q13422).
T1 construct: endogenously expressing IKZF1 with HiBiT fusion tag via CRISPR
T1 sequence (Q96SW2 whole entry partner, the tested form may be a part): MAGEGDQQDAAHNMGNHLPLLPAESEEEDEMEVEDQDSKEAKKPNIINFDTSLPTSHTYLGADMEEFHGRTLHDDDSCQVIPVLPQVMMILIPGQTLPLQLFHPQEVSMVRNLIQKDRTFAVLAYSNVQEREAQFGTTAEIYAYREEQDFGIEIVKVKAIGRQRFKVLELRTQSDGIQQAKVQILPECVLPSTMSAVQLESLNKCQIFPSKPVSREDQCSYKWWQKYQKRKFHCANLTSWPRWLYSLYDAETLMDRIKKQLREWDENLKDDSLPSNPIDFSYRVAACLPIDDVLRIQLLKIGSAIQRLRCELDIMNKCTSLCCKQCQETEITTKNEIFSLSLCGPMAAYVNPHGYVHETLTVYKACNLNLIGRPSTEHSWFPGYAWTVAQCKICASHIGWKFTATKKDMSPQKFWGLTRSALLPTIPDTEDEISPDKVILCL
T1 sequence (Q16531 whole entry partner, the tested form may be a part): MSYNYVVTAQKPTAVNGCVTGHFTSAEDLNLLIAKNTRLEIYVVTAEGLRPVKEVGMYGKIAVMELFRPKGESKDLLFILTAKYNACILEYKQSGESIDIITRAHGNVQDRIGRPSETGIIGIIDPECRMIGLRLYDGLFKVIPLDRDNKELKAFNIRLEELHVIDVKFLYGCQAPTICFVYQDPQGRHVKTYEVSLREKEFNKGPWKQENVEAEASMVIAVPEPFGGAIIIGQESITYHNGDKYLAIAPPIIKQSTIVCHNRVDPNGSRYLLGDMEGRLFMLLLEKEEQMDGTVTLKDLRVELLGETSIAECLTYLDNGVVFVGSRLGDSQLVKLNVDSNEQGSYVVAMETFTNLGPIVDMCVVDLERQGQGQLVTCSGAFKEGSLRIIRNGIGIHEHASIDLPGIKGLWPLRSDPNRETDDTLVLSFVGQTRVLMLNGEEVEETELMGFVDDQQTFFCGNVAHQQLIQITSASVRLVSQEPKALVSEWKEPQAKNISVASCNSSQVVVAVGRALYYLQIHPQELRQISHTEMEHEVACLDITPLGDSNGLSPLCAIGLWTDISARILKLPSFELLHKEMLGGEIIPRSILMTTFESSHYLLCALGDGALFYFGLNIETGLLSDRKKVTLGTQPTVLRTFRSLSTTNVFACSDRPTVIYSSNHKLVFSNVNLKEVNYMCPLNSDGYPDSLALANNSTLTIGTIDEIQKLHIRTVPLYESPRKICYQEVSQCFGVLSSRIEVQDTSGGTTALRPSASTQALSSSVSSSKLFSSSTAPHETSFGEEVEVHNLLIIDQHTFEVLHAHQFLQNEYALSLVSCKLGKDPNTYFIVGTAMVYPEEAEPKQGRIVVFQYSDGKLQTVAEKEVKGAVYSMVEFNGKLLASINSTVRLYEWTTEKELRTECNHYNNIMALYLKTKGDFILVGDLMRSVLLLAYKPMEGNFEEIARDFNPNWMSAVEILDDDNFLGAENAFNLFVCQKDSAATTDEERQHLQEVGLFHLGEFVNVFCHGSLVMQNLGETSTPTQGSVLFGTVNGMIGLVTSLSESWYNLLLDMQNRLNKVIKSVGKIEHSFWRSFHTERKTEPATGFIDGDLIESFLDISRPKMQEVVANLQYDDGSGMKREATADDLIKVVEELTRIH
T1 sequence (Q13422 whole entry, the tested form may be a part): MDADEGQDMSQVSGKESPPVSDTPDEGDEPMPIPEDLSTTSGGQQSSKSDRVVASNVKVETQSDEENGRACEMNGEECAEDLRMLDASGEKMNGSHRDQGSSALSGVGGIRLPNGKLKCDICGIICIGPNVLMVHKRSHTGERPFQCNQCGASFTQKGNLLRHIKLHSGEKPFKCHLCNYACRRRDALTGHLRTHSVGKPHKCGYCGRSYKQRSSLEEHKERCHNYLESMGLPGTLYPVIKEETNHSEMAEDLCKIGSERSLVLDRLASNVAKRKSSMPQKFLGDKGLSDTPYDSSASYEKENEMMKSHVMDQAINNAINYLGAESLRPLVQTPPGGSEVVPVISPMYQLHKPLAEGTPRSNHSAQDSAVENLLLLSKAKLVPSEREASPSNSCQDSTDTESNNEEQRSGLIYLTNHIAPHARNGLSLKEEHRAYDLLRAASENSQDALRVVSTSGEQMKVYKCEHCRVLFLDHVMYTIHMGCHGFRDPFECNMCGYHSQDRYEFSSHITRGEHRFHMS
Description: IKZF1 Degradation Assay, HiBiT Method. Conditions: NCIH929 cells expressing HiBiT-tagged IKZF1, 6 hours, top concentration 10 μM. In kind it is cell-based. The method, boiled down: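 NCIH929 cells expressing HiBiT-tagged IKZF1, 15000 cells/well in RPMI with 10% FBS and 0.05 mM 2-mercaptoethanol, exposed to compound 6 h at 37 °C. Remaining IKZF1 quantified by lytic HiBiT luminescence, normalised to untreated-cell and medium-only controls.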
(In general: HiBiT is a short tag that completes a luciferase, so light tracks the accessible tagged protein.)

Like-named read-outs stand apart in the source and are kept apart here.

Regarding `CC(C)Oc1cc2nc([C@H]3CC[C@H](CN4CCC(c5ccc6c(c5)n(C)c(=O)n6C5CCC(=O)NC5=O)CC4)CC3)cn2cc1C(=O)Nc1cccn([C@H]2C[C@H]2F)c1=O` (stereo partly drawn) [Compound 169, 2-((1R,4S)-4-((4-(1-(2,6-dioxopiperidin-3-yl)-3-methyl-2-oxo-2,3-dihydro-1H-benzo[d]imidazol-5-yl)piperidin-1-yl)methyl)cyclohexyl)-N-(1-((1S,2R)-2-fluorocyclopropyl)-2-oxo-1,2-dihydropyridin-3-yl)-7-isopropoxyimidazo[1,2-a]pyridine-6-carboxamide], in series [1] (5 mg/kg IV, mean (Table 5)), the AUC(0-t) (in general, the area under the concentration-time curve up to a stated or last time point) came out at 2.21 µg·h/mL; the C0 was found to be 3.16 µg/mL; the clearance – broadly, the volume of plasma or blood freed of the substance per unit of time – was 2.1 L/h/kg; the half-life (commonly the time in which the quantity being followed falls by half) was 42.5 h. Besides, in series [1] (5 mg/kg IV, mean (Table 5)), the Vd amounted to 58 L/kg. In addition, in series [1] (10 mg/kg PO, mean (Table 6)), the AUC(0-t) is 0.473 µg·h/mL; the Cmax – broadly, the peak of the concentration-time curve – was determined as 0.0322 µg/mL; the bioavailability (as a rule, dose-corrected exposure relative to a reference, in per cent) came to 10.7%.

In the case of `CC(C)Oc1cc2nc([C@H]3CC[C@H](CN4CCC(c5ccc6c(c5)n(C)c(=O)n6C5CCC(=O)NC5=O)CC4)CC3)cn2cc1C(=O)Nc1cnn2cccnc12` (some centres unmarked) [Compound 48, 2-[4-[[4-[1-(2,6-dioxo-3-piperidyl)-3-methyl-2-oxo-benzimidazol-5-yl]-1-piperidyl]methyl]cyclohexyl]-7-isopropoxy-N-pyrazolo[1,5-a]pyrimidin-3-yl-imidazo[1,2-a]pyridine-6-carboxamide], the DC50 (commonly the concentration giving 50% degradation) on IKZF1 was above 10 µM. In series [1] (5 mg/kg IV, mean), this compound had an AUC(0-t) of 1.72 µg·h/mL, a C0 of 4.18 µg/mL, a clearance of 2.78 L/h/kg and a half-life of 34.5 h. Moreover, the Vd in series [1] (5 mg/kg IV, mean) was found to be 58.5 L/kg. In series [1] (10 mg/kg PO, mean), this compound registered an AUC(0-t) of 0.241 µg·h/mL, a Cmax of 0.0339 µg/mL and a bioavailability of 7.02%.

The values above are taken from US20240343733A1, “COMPOUNDS FOR TARGETING DEGRADATION OF IRAK4 PROTEINS” (BIOGEN MA INC., priority 2021, published 2024).
